Reference: patent US5070089A, “Therapeutic agent for liver disease and piperazine derivatives” (Nippon Chemiphar Co., Ltd., priority 1988, dated 1991)
Like-named read-outs stand apart in the source and are kept apart here.

How the values were obtained:
[1] = tested on: lipid peroxidation in rat hepatocyte; experiment: Inhibitory action on lipid peroxidation (rat hepatocyte, TBA color formation, absorbance at 530 nm); format: biochemical; conditions: 37° C., 1 hour; for Inhibition ratio (at Final Concentration of Tested Compound) 10^-4 M: final concentration 10^-4 M, 100 µM; for Inhibition ratio (at Final Concentration of Tested Compound) 10^-5 M: final concentration 10^-5 M, 10 µM
Experimental: A hepatocyte was isolated from rat according to the method of Ui et al (Hiroshi Oka and Tadao Ui: "Isolated Cells--Experimental and Application",page 91). The determination of lipid peroxidation was performed using a died hepatocyte which had been frozen at -85° C. and stored at the temperature and which was melted when the experimental was done. […] The centrifugal tube was shaken at 37° C. for 1 hour for performing a reaction, and then placed into an ice-water bath to terminate the reaction. […] The centrifugal tube was taken out of the ice-water bath and placed in a water bath (kept at 95°-98° C.). The content of the tube was heated in the bath for 1 hour for developing color-formation. After the heating was complete, the content of the tube was cooled and subjected to centrifugal separation. The inhibitory action on lipid peroxidation of the sample was determined by measuring absorbance at 530 nm. The determined inhibitory action is expressed inhibition ratio by percent (%) calculated by the following equation: [formula] In Table 3, the number of the tested compound corresponds to the identical number set forth in Tables 1 and 2 for identifying the compounds of the invention.

[2] = tested on: acute liver disease caused by CCl4 (Wister-strain rat); experiment: Preventive action on deviation of GOT value and GPT value in vivo using model of acute liver disease caused by CCl4; conditions: Rattus norvegicus, po, 24 h
Experimental: CCl4 in olive oil (concentration: 50%) was orally administered to a Wister-strain rat (body weight: 170-180 g) fasted for 24 hrs., at a dose of 1 ml/kg, to cause acute liver disease. […] For control group, 1.0% methylcellulose (MC) was administered in place of the piperazine derivative. For normal group, a simple olive oil was administered in place of the CCl4 -containing olive oil. For the administration, the piperazine derivative was employed in the form of a dispersion in aqueous MC solution (concentration: 1.0%). At 24 hours after the administration of CCl4, the rat was abdominally sectioned under ether anesthesia. From the abrominal large vein, a blood was collected. The collected blood was subjected to centrifugal separation at 3,000 r.p.m. for 10 min to obtain its plasma. […] The results are set forth in Table 4 in terms of a ratio (%) of suppression (prevention) of GOT or GPT. In Table 4, "***" means 90-100%, "**" means 60-90%, and "*" means 30-60%. The ratio of suppression is calculated according to the following equation. [formula]

[3] = Toxicity by oral administration; format: in vivo; conditions: even at 1,600 mg/kg by oral administration
Experimental: Further, it has been experimentally confirmed that all of piperazine derivatives of the invention tested for toxicity (Compound Nos. 4, 5, 22, 23, 32, 33, 38, 75 and 113 indicated in Tables 1 and 2) cause no death even at 1,600 mg/kg by oral administration.

[4] = read-out: ratio (%) of suppression (prevention) of GOT
[5] = read-out: ratio (%) of suppression (prevention) of GPT

## CSC(=S)N1CCN(Cc2ccccc2O)CC1 [Compound 4, Methyl 4-(2-hydroxybenzyl)-1-piperazinecarbodithioate]
[1]
  Inhibition ratio (at Final Concentration of Tested Compound) 10^-4 M: 100%
  Inhibition ratio (at Final Concentration of Tested Compound) 10^-5 M: 96.6%
[2]; [4]
  inhibition in vivo at 30 mg/kg: 90 to 100%
[2]; [5]
  inhibition in vivo at 30 mg/kg: 90 to 100%
[3]
  death in toxicity test: no death

## COc1cccc(CN2CCN(C(=S)SC)CC2)c1OC [Compound 22, Methyl 4-(2,3-dimethoxybenzyl)-1-piperazinecarbodithioate]
[1]
  Inhibition ratio (at Final Concentration of Tested Compound) 10^-4 M: 100%
  Inhibition ratio (at Final Concentration of Tested Compound) 10^-5 M: 92.0%
[2]; [4]
  inhibition in vivo at 30 mg/kg: 90 to 100%
[2]; [5]
  inhibition in vivo at 30 mg/kg: 60 to 90%
[3]
  death in toxicity test: no death

## COc1ccc(OC)c(CN2CCN(C(=S)SC)CC2)c1 [Compound 23, Methyl 4-(2,5-dimethoxybenzyl)-1-piperazinecarbodithioate]
[1]
  Inhibition ratio (at Final Concentration of Tested Compound) 10^-4 M: 100%
  Inhibition ratio (at Final Concentration of Tested Compound) 10^-5 M: 60.6%
[2]; [4]
  inhibition in vivo at 30 mg/kg: 90 to 100%
[2]; [5]
  inhibition in vivo at 30 mg/kg: 90 to 100%
[3]
  death in toxicity test: no death

## CSC(=S)N1CCN(Cc2ccc(O)c(O)c2O)CC1 [Compound 32, Methyl 4-(2,3,4-trihydroxybenzyl)-1-piperazinecarbodithioate]
[1]
  Inhibition ratio (at Final Concentration of Tested Compound) 10^-4 M: 87.8%
  Inhibition ratio (at Final Concentration of Tested Compound) 10^-5 M: 87.4%
[2]; [4]
  inhibition in vivo at 30 mg/kg: 60 to 90%
[2]; [5]
  inhibition in vivo at 30 mg/kg: 60 to 90%
[3]
  death in toxicity test: no death
